According to the supplement of paper PMC10627819:

Assays:
B. subtilis 168 [1] = assay: fitness (endpoint OD595 vs no drug) (fraction); higher = more growth; details: one replicate, main component drawn
Procedure, shortened: (§1)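 Background-subtracted growth curves were the basis for fitness, taken as the optical density at entry into stationary phase over the robust mean of no-drug control wells. A cap of 1 was applied. The curves came from OD595 readings every 30 min for 14 h at 37 °C, in 384-well plates seeded at OD595 0.01 with 30 µl, or 55 µl for S. pneumoniae.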

S. pneumoniae D39V [2] = assay: as above; details: main component drawn
Procedure, shortened: as §1

B. subtilis 168 [3] = assay: Bliss interaction score (quartile over a dose matrix) (fitness difference); higher = more antagonism (negative = synergy); details: main component drawn
Procedure, shortened: (§2)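 The Bliss score takes observed fitness and subtracts the expected fitness, calculated as a product of single-drug fitness values. Those single-drug values were inferred from the combination data. Fitness is OD595 at entry into stationary phase divided by the plate's robust no-drug mean, capped at 1, and the score is summarised by quartiles across technical, biological and donor/recipient replicates.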

S. aureus DSM 20231 = assay: as above; details: main component drawn
Procedure, shortened: as §2

S. aureus Newman = assay: as above; details: main component drawn
Procedure, shortened: as §2

S. pneumoniae D39V [4] = assay: as above; details: main component drawn
Procedure, shortened: as §2
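For Bliss interaction score (quartile over a dose matrix) in this document: first quartile when negative (synergy) and third quartile when positive (antagonism).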

C[C@H]1COc2c(N3CCN(C)CC3)c(F)cc3c(=O)c(C(=O)O)cn1c23 [Levofloxacin] + CCC(C)C1C(=O)NC(=C)C(=O)NC(C(=O)NC(CSCC(C(=O)N1)NC(=O)/C(=C/C)/NC(=O)C(C(C)CC)N)C(=O)NC2C(SCC(NC(=O)CNC(=O)C3CCCN3C2=O)C(=O)NC(CCCCN)C(=O)NC4C(SCC(NC(=O)CNC(=O)C(NC(=O)C(NC(=O)C(NC(=O)CNC4=O)C)CC(C)C)CCSC)C(=O)NC(CC(=O)N)C(=O)NC(CCSC)C(=O)NC(CCCCN)C(=O)NC5C(SCC6C(=O)NC(C(=O)NC(CSC(C(C(=O)N6)NC(=O)C(NC5=O)C)C)C(=O)NC(CO)C(=O)NC(C(C)CC)C(=O)NC(CC7=CN=CN7)C(=O)NC(C(C)C)C(=O)NC(=C)C(=O)NC(CCCCN)C(=O)O)CC8=CN=CN8)C)C)C)CC(C)C [Nisin]
Details | fitness
B. subtilis 168 [1], first compound 0.001 µg/mL, partner 0.5 µg/mL | 0.923
B. subtilis 168 [1], first compound 0.001 µg/mL, partner 1 µg/mL | 0.88
B. subtilis 168 [1], first compound 0.001 µg/mL, partner 2 µg/mL | 0.778
B. subtilis 168 [1], first compound 0.002 µg/mL, partner 0.5 µg/mL | 0.904
B. subtilis 168 [1], first compound 0.002 µg/mL, partner 1 µg/mL | 0.871
B. subtilis 168 [1], first compound 0.002 µg/mL, partner 1.25 µg/mL | 0.883
B. subtilis 168 [1], first compound 0.002 µg/mL, partner 1.6 µg/mL | 0.744
B. subtilis 168 [1], first compound 0.002 µg/mL, partner 2 µg/mL | 0.76
B. subtilis 168 [1], first compound 0.002 µg/mL, partner 2.5 µg/mL | 0.696
B. subtilis 168 [1], first compound 0.002 µg/mL, partner 3.2 µg/mL | 0.0329
B. subtilis 168 [1], first compound 0.002 µg/mL, partner 5 µg/mL | 0.0276
B. subtilis 168 [1], first compound 0.002 µg/mL, partner 6.4 µg/mL | 0.0319
B. subtilis 168 [1], first compound 0.0039 µg/mL, partner 0.5 µg/mL | 0.898
B. subtilis 168 [1], first compound 0.0039 µg/mL, partner 1 µg/mL | 0.882
B. subtilis 168 [1], first compound 0.0039 µg/mL, partner 1.25 µg/mL | 0.888
B. subtilis 168 [1], first compound 0.0039 µg/mL, partner 1.6 µg/mL | 0.734
B. subtilis 168 [1], first compound 0.0039 µg/mL, partner 2 µg/mL | 0.747
B. subtilis 168 [1], first compound 0.0039 µg/mL, partner 2.5 µg/mL | 0.319
B. subtilis 168 [1], first compound 0.0039 µg/mL, partner 3.2 µg/mL | 0.0154
B. subtilis 168 [1], first compound 0.0039 µg/mL, partner 5 µg/mL | 0.088
B. subtilis 168 [1], first compound 0.0039 µg/mL, partner 6.4 µg/mL | 0.0555
B. subtilis 168 [1], first compound 0.0078 µg/mL, partner 1.25 µg/mL | 0.868
B. subtilis 168 [1], first compound 0.0078 µg/mL, partner 1.6 µg/mL | 0.701
B. subtilis 168 [1], first compound 0.0078 µg/mL, partner 2.5 µg/mL | 0.598
B. subtilis 168 [1], first compound 0.0078 µg/mL, partner 3.2 µg/mL | 0.0243
B. subtilis 168 [1], first compound 0.0078 µg/mL, partner 5 µg/mL | 0.112
B. subtilis 168 [1], first compound 0.0078 µg/mL, partner 6.4 µg/mL | 0.0288
B. subtilis 168 [1], first compound 0.0312 µg/mL, partner 0.5 µg/mL | 0.0428
B. subtilis 168 [1], first compound 0.0312 µg/mL, partner 1 µg/mL | 0.032
B. subtilis 168 [1], first compound 0.0312 µg/mL, partner 2 µg/mL | 0.0482
B. subtilis 168 [1], first compound 0.0312 µg/mL, partner 4 µg/mL | 0.0425
B. subtilis 168 [1], first compound 0.0312 µg/mL, partner 8 µg/mL | 0.0314
B. subtilis 168 [1], first compound 0.0312 µg/mL, partner 16 µg/mL | 0.0291
B. subtilis 168 [1], first compound 0.0625 µg/mL, partner 0.5 µg/mL | 0.0426
B. subtilis 168 [1], first compound 0.0625 µg/mL, partner 1 µg/mL | 0.0609
B. subtilis 168 [1], first compound 0.0625 µg/mL, partner 2 µg/mL | 0.0558
B. subtilis 168 [1], first compound 0.0625 µg/mL, partner 4 µg/mL | 0.0381
B. subtilis 168 [1], first compound 0.0625 µg/mL, partner 8 µg/mL | 0.0402
B. subtilis 168 [1], first compound 0.0625 µg/mL, partner 16 µg/mL | 0.0222
B. subtilis 168 [1], first compound 0.125 µg/mL, partner 0.5 µg/mL | 0.0499
B. subtilis 168 [1], first compound 0.125 µg/mL, partner 1 µg/mL | 0.0546
B. subtilis 168 [1], first compound 0.125 µg/mL, partner 2 µg/mL | 0.0347
B. subtilis 168 [1], first compound 0.125 µg/mL, partner 4 µg/mL | 0.0437
B. subtilis 168 [1], first compound 0.125 µg/mL, partner 8 µg/mL | 0.0327
B. subtilis 168 [1], first compound 0.125 µg/mL, partner 16 µg/mL | 0.0121
S. pneumoniae D39V [2], first compound 0.1725 µg/mL, partner 1.6 µg/mL | 0.157
S. pneumoniae D39V [2], first compound 0.1725 µg/mL, partner 3.2 µg/mL | 0.0386
S. pneumoniae D39V [2], first compound 0.1725 µg/mL, partner 6.4 µg/mL | 0.0067
S. pneumoniae D39V [2], first compound 0.2 µg/mL, partner 0.4275 µg/mL | 0.906
S. pneumoniae D39V [2], first compound 0.2 µg/mL, partner 0.855 µg/mL | 0.956
S. pneumoniae D39V [2], first compound 0.2 µg/mL, partner 1.71 µg/mL | 0.0809
S. pneumoniae D39V [2], first compound 0.345 µg/mL, partner 3.2 µg/mL | 0.0036
S. pneumoniae D39V [2], first compound 0.345 µg/mL, partner 6.4 µg/mL | 0.0023
S. pneumoniae D39V [2], first compound 0.4 µg/mL, partner 0.4275 µg/mL | 0.844
S. pneumoniae D39V [2], first compound 0.4 µg/mL, partner 1.71 µg/mL | 0.0708
S. pneumoniae D39V [2], first compound 0.69 µg/mL, partner 1.6 µg/mL | 0.0158
S. pneumoniae D39V [2], first compound 0.69 µg/mL, partner 3.2 µg/mL | 0.0153
S. pneumoniae D39V [2], first compound 0.69 µg/mL, partner 6.4 µg/mL | 0.0526
S. pneumoniae D39V [2], first compound 0.8 µg/mL, partner 0.4275 µg/mL | 0.298
S. pneumoniae D39V [2], first compound 0.8 µg/mL, partner 0.855 µg/mL | 0.102
S. pneumoniae D39V [2], first compound 0.8 µg/mL, partner 1.71 µg/mL | 0.0697

Details | Bliss interaction score
B. subtilis 168 [3] | 0.0523
S. aureus DSM 20231 | 0.0616
S. aureus Newman | -0.0668
S. pneumoniae D39V [4] | -0.0976
